Calls of active or inactive are those of the source.
Columns and labels:
[1] = Luminescence Cell-Based Dose Confirmation HTS to Identify Activators of 5'UTR Stem-Loop Driven Alpha-Synuclein mRNA Translation in H4 Neuroglioblastoma Cells. [Related pubchem assays: 1829 (Project Summary), 1814 (Primary HTS)]; assay type: functional
[2] = Luminescence Cell-Based Dose Response HTS to Identify Activators of Luciferase Translation or Activity in H4 […] Cells. [Related pubchem assays: 1829 (Project Summary), 1814 (Primary HTS)]; assay type: functional
H4 = experiment: Luminescence Cell-Based Dose Response HTS to Identify Activators of 5'UTR Stem-Loop Driven Prion Protein mRNA Translation in H4 Neuroglioblastoma Cells. [Related pubchem assays: 1829 (Project Summary), 1814 (Primary HTS)]; assay type: functional; settings: Homo sapiens
[3] = microbe, parasite or virus in culture; assay type: functional; settings: Mycobacterium tuberculosis
[4] = viability loss in THP-1 monocytes – THP-1 cells, cytotoxicity control for Vif-APOBEC3G degradation inhibitor project, dose response (AID 1117359); assay type: functional; settings: THP-1
[5] = target: T1, Heat shock factor protein 1 (Mus musculus, UniProt P38532); experiment: enhancement of HSF1-driven luciferase signal – cell-based, NIH3T3, luminescence, dose retest, confirmation (AID 435004); assay type: functional;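 further: stress induced by proteasome inhibitor MG132 added 30 min after compound; luciferase reporter driven by HSF1 response element in NIH3T3 cells; actives raise luminescence as potentiators of the MG132 stress response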
T1 sequence (P38532 whole entry): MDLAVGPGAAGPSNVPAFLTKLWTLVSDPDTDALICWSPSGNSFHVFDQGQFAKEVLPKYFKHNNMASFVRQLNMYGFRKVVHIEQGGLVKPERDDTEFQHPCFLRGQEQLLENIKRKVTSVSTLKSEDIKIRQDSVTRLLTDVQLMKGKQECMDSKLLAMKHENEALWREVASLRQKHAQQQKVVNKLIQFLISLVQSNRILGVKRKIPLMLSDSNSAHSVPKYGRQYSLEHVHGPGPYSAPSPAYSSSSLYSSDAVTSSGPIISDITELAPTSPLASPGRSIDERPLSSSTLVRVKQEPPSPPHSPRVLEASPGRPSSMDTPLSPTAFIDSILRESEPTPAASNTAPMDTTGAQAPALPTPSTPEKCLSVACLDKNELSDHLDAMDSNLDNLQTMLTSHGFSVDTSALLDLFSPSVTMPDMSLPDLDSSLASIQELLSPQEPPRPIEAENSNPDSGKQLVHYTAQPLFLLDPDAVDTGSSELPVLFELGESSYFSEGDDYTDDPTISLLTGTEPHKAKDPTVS

[6] = target: Heat shock protein HSP 90-alpha (Homo sapiens, UniProt P07900); assay type: functional, organism-based
[7] = target: FAD-linked sulfhydryl oxidase ALR (Homo sapiens, UniProt P55789); experiment: ALR-catalysed DTT oxidation blockers – biochemical, H2O2 detection, luminescence, cherry-pick, dose response (AID 493248)
Sequence of FAD-linked sulfhydryl oxidase ALR (P55789 whole entry): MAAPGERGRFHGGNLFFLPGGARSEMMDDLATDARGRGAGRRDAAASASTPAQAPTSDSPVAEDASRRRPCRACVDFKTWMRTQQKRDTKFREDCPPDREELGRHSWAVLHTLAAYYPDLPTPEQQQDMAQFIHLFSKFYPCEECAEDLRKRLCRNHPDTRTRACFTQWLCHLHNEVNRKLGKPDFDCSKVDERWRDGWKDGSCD

[8] = viability loss in HeLa cells – cytotoxicity control for MgcRacGAP inhibitor project, dose response (AID 624300); assay type: functional
[9] = target: T2, Rac GTPase-activating protein 1 (Homo sapiens, UniProt Q9H0H5); experiment: blockers of MgcRacGAP-driven Rac1 GTP hydrolysis – biochemical, ADP Hunter fluorescence, primary and confirmatory, confirmation (AID 624330); assay type: functional
T2 sequence (Q9H0H5 whole entry): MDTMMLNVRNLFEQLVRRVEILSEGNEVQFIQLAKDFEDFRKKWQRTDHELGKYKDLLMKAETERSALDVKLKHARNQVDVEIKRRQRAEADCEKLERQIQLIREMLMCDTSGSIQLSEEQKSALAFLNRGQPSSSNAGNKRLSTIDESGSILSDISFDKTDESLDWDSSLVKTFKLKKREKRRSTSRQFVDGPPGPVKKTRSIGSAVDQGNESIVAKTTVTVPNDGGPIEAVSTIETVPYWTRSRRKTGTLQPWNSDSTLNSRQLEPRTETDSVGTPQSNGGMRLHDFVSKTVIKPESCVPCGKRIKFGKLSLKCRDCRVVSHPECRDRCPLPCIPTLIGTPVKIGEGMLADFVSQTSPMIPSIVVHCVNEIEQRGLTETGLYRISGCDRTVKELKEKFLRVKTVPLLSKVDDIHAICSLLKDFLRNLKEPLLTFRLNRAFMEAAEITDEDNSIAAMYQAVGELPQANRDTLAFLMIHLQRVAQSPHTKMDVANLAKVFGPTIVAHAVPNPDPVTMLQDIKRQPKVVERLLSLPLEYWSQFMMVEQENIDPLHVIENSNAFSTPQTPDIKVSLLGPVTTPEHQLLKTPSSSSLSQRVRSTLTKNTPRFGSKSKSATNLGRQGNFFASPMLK

[10] = system: Streptococcus sp. 'group A'; experiment: Streptococcus pyogenes SK(-)GAS viability under kanamycin – luminescence, BacTiterGlo, confirmation, counter-screen for streptokinase expression inhibitor project, dose response (AID 1900); assay type: functional, organism-based
Streptococcus = experiment: GAS UMAA2166 growth inhibition – luminescence, BacTiterGlo, counter-screen for streptokinase expression inhibitor project, dose response (AID 1915); assay type: functional, organism-based;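 further: potency for reduction of bacterial viability or growth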
Nonstructural protein 1 = Nonstructural protein 1 (Influenza A virus, UniProt Q194T2); assay type: functional, Influenza A virus (A/California/07/2009(H1N1))
Sequence of Nonstructural protein 1 (Q194T2 whole entry): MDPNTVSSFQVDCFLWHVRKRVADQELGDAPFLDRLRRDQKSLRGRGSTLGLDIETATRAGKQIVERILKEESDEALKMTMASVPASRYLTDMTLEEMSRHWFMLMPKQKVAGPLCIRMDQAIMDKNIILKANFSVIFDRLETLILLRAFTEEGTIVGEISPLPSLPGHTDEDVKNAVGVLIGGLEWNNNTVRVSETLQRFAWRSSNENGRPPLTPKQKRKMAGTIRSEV

Cytochrome P450 1A2 = target: T3, Cytochrome P450 1A2 (Homo sapiens, UniProt P05177);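 further: PubChem cytochrome P450 panel assay, CYP1A2 panel member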
T3 sequence (P05177 whole entry): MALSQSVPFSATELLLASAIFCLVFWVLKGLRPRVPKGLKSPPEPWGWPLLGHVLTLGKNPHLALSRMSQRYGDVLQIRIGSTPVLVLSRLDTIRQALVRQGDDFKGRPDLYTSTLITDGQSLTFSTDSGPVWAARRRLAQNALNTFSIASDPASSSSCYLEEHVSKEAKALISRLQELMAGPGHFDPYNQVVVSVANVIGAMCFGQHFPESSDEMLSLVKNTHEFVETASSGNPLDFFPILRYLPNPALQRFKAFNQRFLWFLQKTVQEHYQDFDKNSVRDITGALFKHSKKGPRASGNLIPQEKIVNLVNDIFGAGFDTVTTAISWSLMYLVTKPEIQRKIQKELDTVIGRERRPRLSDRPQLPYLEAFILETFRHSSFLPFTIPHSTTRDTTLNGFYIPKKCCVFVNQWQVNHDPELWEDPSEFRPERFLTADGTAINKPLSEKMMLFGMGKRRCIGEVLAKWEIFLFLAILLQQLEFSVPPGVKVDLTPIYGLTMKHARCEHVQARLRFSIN

Cytochrome P450 2C9 = Cytochrome P450 2C9 (Homo sapiens, UniProt P11712)
Sequence of Cytochrome P450 2C9 (P11712 whole entry): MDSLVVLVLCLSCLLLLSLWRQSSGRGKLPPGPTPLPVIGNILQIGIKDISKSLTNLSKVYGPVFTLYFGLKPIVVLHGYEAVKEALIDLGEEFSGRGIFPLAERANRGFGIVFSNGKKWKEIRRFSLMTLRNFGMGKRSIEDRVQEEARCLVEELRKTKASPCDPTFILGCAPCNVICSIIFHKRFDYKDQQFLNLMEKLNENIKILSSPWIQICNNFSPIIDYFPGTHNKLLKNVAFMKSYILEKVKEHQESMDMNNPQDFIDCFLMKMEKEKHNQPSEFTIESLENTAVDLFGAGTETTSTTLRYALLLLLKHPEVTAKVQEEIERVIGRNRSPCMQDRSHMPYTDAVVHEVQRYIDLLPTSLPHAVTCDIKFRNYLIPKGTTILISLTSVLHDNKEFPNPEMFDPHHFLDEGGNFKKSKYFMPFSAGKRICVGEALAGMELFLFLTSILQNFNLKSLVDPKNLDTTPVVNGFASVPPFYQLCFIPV

[11] = target: T4, Polyadenylate-binding protein 1 (Homo sapiens, UniProt P11940); experiment: MLLE binding blockers, Cy5 peptide tracer – biochemical, fluorescence polarization, Cy5-PAM2 peptide, secondary, miRNA deadenylation inhibitor project, dose response (AID 602260); assay type: functional; settings: read-out: IC50_Mean
T4 sequence (P11940 whole entry, the tested form may be a part): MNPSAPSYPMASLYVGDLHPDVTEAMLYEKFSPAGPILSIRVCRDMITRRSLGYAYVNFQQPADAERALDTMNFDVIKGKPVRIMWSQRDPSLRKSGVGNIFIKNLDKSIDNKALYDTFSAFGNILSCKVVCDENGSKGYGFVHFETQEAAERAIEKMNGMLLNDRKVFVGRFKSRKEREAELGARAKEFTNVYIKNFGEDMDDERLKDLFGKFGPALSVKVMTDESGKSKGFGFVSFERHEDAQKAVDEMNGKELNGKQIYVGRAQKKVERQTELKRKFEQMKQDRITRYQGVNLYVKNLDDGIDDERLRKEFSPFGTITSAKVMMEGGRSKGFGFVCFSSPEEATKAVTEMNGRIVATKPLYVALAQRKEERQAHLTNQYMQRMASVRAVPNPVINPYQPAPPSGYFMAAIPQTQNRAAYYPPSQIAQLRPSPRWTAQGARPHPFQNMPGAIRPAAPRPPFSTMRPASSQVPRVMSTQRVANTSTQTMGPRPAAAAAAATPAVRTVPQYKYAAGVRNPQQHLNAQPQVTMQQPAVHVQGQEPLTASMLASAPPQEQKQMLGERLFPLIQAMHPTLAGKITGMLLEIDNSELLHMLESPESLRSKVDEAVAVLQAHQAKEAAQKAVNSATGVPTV

[12] = target: T4, Polyadenylate-binding protein 1; experiment: MLLE domain peptide-binding blockers, IC50 – biochemical, fluorescence polarization, FITC-PAM2 peptide, dose response (AID 602259); assay type: functional; settings: read-out: IC50_Mean
Cytochrome P450 2D6 = Cytochrome P450 2D6 (Homo sapiens, UniProt P10635);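 further: CYP2D6 member of a cytochrome P450 panel assay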
Sequence of Cytochrome P450 2D6 (P10635 whole entry): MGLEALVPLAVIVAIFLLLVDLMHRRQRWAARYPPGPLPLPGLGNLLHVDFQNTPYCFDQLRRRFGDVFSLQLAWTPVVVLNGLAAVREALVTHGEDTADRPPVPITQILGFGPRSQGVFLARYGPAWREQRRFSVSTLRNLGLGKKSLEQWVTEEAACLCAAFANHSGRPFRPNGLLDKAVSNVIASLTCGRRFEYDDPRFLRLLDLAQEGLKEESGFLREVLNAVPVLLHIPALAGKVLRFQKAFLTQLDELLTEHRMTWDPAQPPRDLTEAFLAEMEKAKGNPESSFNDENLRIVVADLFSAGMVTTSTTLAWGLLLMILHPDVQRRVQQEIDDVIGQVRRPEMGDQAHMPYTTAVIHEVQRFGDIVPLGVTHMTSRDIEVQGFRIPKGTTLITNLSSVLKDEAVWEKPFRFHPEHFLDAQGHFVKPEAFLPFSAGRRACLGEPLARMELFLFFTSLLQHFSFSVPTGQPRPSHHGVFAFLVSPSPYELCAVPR

Cytochrome P450 3A4 = Cytochrome P450 3A4 (Homo sapiens, UniProt P08684);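 further: CYP3A4 tested as one member of a cytochrome P450 panel screen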
Sequence of Cytochrome P450 3A4 (P08684 whole entry): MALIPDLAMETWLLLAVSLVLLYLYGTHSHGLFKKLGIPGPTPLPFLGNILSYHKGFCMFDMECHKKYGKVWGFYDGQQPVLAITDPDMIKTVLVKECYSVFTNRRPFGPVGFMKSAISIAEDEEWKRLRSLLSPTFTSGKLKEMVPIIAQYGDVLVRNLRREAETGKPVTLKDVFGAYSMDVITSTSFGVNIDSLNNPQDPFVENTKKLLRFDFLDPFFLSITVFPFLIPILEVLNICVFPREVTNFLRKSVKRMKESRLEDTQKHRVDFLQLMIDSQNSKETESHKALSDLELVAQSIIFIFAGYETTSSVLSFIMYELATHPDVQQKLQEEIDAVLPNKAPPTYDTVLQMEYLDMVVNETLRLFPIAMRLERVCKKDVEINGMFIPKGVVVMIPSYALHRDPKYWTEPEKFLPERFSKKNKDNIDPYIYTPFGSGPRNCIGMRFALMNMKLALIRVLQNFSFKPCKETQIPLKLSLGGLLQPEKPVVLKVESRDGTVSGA

[13] = viability of uninfected HEp-2 cells – cell-based, HTS, cytotoxicity control for RSV inhibitor project, dose response (AID 2410); assay type: functional; settings: human respiratory syncytial virus
Cytochrome P450 2C19 = Cytochrome P450 2C19 (Homo sapiens, UniProt P33261); experiment: Cytochrome panel assay with activity outcomes. Panel member name: p450-cyp2c19 Compounds with AC50 equal or less than 10 uM are considered active; assay type: functional; settings: read-out: AC50
Sequence of Cytochrome P450 2C19 (P33261 whole entry): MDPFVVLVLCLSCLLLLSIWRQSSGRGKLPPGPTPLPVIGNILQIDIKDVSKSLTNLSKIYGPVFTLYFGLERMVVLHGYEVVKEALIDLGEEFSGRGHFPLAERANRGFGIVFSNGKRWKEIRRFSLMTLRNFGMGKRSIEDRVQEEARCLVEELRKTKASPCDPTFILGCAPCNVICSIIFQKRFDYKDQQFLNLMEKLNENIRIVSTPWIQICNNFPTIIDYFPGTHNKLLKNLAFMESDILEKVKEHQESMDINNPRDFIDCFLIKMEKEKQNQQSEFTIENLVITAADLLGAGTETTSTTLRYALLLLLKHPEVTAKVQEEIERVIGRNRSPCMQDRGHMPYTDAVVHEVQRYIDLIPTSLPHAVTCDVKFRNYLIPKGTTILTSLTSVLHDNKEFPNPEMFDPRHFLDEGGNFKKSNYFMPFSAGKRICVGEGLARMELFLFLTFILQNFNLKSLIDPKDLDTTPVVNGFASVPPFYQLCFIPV

Sc1nnc(-c2cc[nH]n2)n1-c1ccccc1Cl
EC50 [1]: 12.7 µM (active) | EC50 [2]: 24.1 µM (active) | EC50 (H4): 19.3 µM (active)

COc1ccc(NC(=O)C(=O)NCC(c2ccco2)N2CCc3ccccc3C2)cc1 (stereo not drawn)
CC50 [3]: > 40 µM (active)

CC(C)c1cc(C(=O)Nc2cc(Br)ccc2O)no1
EC50 [1]: 14 µM (active) | EC50 [2]: > 120 µM (not active) | EC50 (H4): > 120 µM (not active)

COc1ccc(-c2cc(=Nc3ccccc3)c3cc(C)ccc3o2)cc1.[O-][Cl+3]([O-])([O-])O
EC50 [1]: 12.7 µM (active) | EC50 [2]: 10.3 µM (active) | EC50 (H4): 9.82 µM (active)

CCCCCCCCn1cnc2c(N)c(C)c(C)cc21
CC50 [3]: > 40 µM (active)

Cc1ccc(S(=O)(=O)N(C)c2ccccc2C(=O)N2CCCC2)cc1
CC50 [4]: > 40 µM (active)

CC(C)(C)C(=O)NCC12C=CC(O1)C1C(=O)N(c3ccccc3)C(=O)C12 (stereo not drawn)
EC50 [5]: > 260 µM (inactive) | AC50 [6]: 8.25 µM (active)

Sc1nnc(-c2ccco2)n1/N=C/c1cccc(Cl)c1Cl
AC50 [7]: 4.84 µM (active) | CC50 [8]: 96.5 µM (active) | IC50 [9]: 95.7 µM (active)

O=C(NC(=S)NNC(=O)c1ccccc1O)c1ccccc1
EC50 [10]: 2.04 µM (active) | EC50 (Streptococcus): 8.1 µM (active) | IC50 (Nonstructural protein 1): 14.2 µM (active)

Cc1ccc(C(=N)NOC(=O)N2c3ccccc3Sc3ccccc32)cc1
CC50 [3]: > 40 µM (active) | CC50 [8]: 96.4 µM (active) | IC50 [9]: 134 µM (active)

O=C(N/N=C/c1ccccc1O)C1SCCCS1
IC50 (Nonstructural protein 1): 35.6 µM (active)

COc1ccc(Cl)cc1NC(=O)C12CCC(C)(C(=O)O1)C2(C)C (stereo not drawn)
AC50 (Cytochrome P450 1A2): 28.2 µM (inconclusive) | AC50 (Cytochrome P450 2C9): inconclusive

CC(=O)c1c(C)[n+]([O-])c2cc(F)c(F)cc2[n+]1[O-]
CC50 [3]: 35.4 µM (active)

Cc1cc(O)c2c(c1)C(=O)c1cc(O)cc(O)c1C2=O [EMODIN]
CC50 [3]: 20.1 µM (active)

COc1ccc(CNC(=O)Cn2cccc2C(=O)c2ccccc2C)cc1
EC50 [1]: 10.3 µM (active) | EC50 [2]: 10.2 µM (active) | EC50 (H4): 16.8 µM (active)

CCCCCCC(=O)N(O)C1CC(=O)N(c2ccc(C)cc2)C1=O (stereo not drawn)
AC50 [6]: 1.43 µM (active) | IC50 [11]: > 66 µM (inactive) | IC50 [12]: > 66 µM (inactive)

COc1ccccc1OCC(=O)N/N=C1/SCC(=O)N1Cc1ccccc1
AC50 (Cytochrome P450 2D6): 22.4 µM (inconclusive) | AC50 (Cytochrome P450 3A4): 0.891 µM (inconclusive) | AC50 (Cytochrome P450 2C9): inconclusive

O=C(CCCN1CC=C(n2c(=O)[nH]c3ccccc32)CC1)c1ccc(F)cc1 [DROPERIDOL]
AC50 (Cytochrome P450 2C9): inconclusive

O=C(C1CC1)N1CCCC(c2ccc(Cl)cc2)=N1
CC50 [3]: > 40 µM (active)

C(=C\n1nnc2ccccc21)/c1ccc[nH]1
EC50 [1]: 28.4 µM (active) | EC50 [2]: 9.95 µM (active) | EC50 (H4): 32 µM (active)

CCCn1c(C2CCCN2c2nc(-c3cccc(Br)c3)cs2)nc2ccccc21 (stereo not drawn)
CC50 [13]: 20.9 µM (active) | EC50 [1]: 5.7 µM (active) | EC50 [2]: 32.7 µM (active) | EC50 (H4): > 120 µM (not active)

COc1cccc(-c2nc3n(n2)C(c2ccc4c(c2)OCO4)C(C(N)=O)=C(C)N3)c1 (stereo not drawn)
EC50 [1]: 12.4 µM (active) | EC50 [2]: 31.6 µM (active) | EC50 (H4): > 120 µM (not active)

C/C(CC(=O)NCCCN1CCOCC1)=N\NC(=O)COc1ccc(Cl)cc1
AC50 (Cytochrome P450 2C19): 10 µM (inconclusive) | AC50 (Cytochrome P450 2D6): 14.1 µM (inconclusive) | AC50 (Cytochrome P450 2C9): inconclusive

CCOC(=O)c1c(C)c(/C=N/Nc2ccccc2)n(C)c1C
CC50 [4]: > 40 µM (active)

COc1ccc(CNc2ncncc2-c2cccnc2)c(OC)c1
AC50 (Cytochrome P450 2C9): inconclusive

O=C(Nc1nc[nH]n1)c1ccc([N+](=O)[O-])cc1[N+](=O)[O-]
AC50 (Cytochrome P450 2C19): 39.8 µM (inconclusive) | AC50 (Cytochrome P450 3A4): 14.1 µM (inconclusive) | AC50 (Cytochrome P450 2C9): inconclusive

CCC(=O)N1N=C(c2ccc(NS(C)(=O)=O)cc2)CC1c1ccc(C)cc1 (stereo not drawn)
CC50 [4]: > 40 µM (active)

CCCCC(=O)NN/C=C1\C(=O)NC(=O)N(Cc2ccco2)C1=O
IC50 (Nonstructural protein 1): 13.7 µM (active)

NC(=O)NC(=O)CC1SC(NN=C2CSC(=O)N2)=NC1=O (stereo not drawn)
IC50 (Nonstructural protein 1): 7.54 µM (active) | IC50 [11]: > 66 µM (inactive) | IC50 [12]: > 66 µM (inactive)

Cn1c(-c2cccc([N+](=O)[O-])c2)cnc1NCc1cccc([N+](=O)[O-])c1
CC50 [8]: 100 µM (active)
